What follows are compounds tested on erythemic response (ultraviolet-induced erythema) (assay: UV-induced erythemic response inhibition in guinea pigs, topical (modification of the method of Winder)). Conditions: dose 100 mcg./12 cm.^2, in ethanol, weighted scores 1.0-2.5 hours.
Assay type: in vivo, Albino guinea pigs
Method: A modification of the method of Winder was used to measure the anti-inflammatory activities of the compounds employed in the method of the present invention; see C. V. Winder, et al., Arch. Int. Pharmacodyn., 116, 261 (1958). Albino guinea pigs of either sex, weighing 225-300 grams, were shaved on the back and chemically depilated (Nair® Lotion Hair Remover, Carter Products, N.Y., N.Y.) 18-20 hours before exposure to ultraviolet light. The animals, in groups of four and bearing identifying ear tags, were treated by applying to an area of skin of about 12 cm.^2 a solution of test compound dissolved in 0.1 cc. of ethanol. The control treatment consisted of administering only the drug vehicle, ethanol, to a group of four animals. Groups of four animals each were given different treatment levels of test compound to obtain dose responses. Random order and blind administration of the test compounds were employed; drug idenfication was not made until after all animals were graded. Immediately prior to drug application, the animals were exposed in groups of four to a high-intensity ultraviolet light for a measured period of time (usually 4-7 seconds). The ultraviolet light source, a Hanovia Lamp (Kroymayer-Model 10), was placed in contact with the skin of the animal's back. A gummed notebook paper reinforcement was affixed to the lamp lens to provide an unexposed area of contrast for grading the erythema. Beginning one hour after exposure and thereafter at half-hour intervals for another 1 1/2 hours, the degree of resulting erythema was graded by an arbiturary scoring system based upon the degree of contrast and redness formed. […]
Total scores from each treatment group of four guinea pigs were prepared to the control treatment, and the percent inhibition was calculated as follows: [formula]
A dose-response graph was obtained by plotting dose versus percent inhibition, the points representing the average of each treatment group of four guinea pigs. […] The plotted or calculated ED50 for the particular compound tested, where available, is given in the last column of Table I.

Compound	% Inhibition compared with control (erythemic response) [%]
COc1ccc(-c2nnc(SC(C)C)nc2-c2ccc(OC)cc2)cc1 [CH(CH3)2 S 1 OCH3 OCH3, 3-isopropylthio-5,6-bis(4-methoxyphenyl)-1,2,4-triazine]	35
COc1ccc(-c2nnc(SCc3ccccc3)nc2-c2ccc(OC)cc2)cc1 [CH2 C6 H5 S 1 OCH3 OCH3, 3-benzylthio-5,6-bis(4-methoxyphenyl)-1,2,4-triazine]	49
COc1ccc(-c2ncnnc2-c2ccc(OC)cc2)cc1 [H -- -- OCH3 OCH3, 5,6-bis(4-methoxyphenyl)-1,2,4-triazine]	53

Source: patent publication US4021553A, “5,6-Diaryl-1,2,4-triazines as topically-active anti-inflammatory agents” (Eli Lilly and Company, priority 1976, dated 1977)
